Values of other authors as cited in US6017399A, “Method for controlling and removing solid deposits from a surface of a component of a steam generating system” (priority 1998, dated 2000).
Where two headings read alike, the source gives them in different places.

Compound | pKa (25° C., Table 4) | pKa (25° C.) | pKa (about 250° C.)
CC(C)CNCC(C)C [Diisobutylamine] | 10.82 | – | –
NCCCCCCN [1,6 Diaminohexane] | 10.93 | – | –
Dimethylamino-propylamine | 11.70 | – | –
CCNC1CCCCC1 [N-Ethylcyclohexylamine] | 12.00 | – | –
C1CCC2=NCCCN2CC1 [1,5-Diazabicyclo (5,4,0) Unde-5-ane] | 13.40 | – | –
CCCCNCCCC [Di-N-Butylamine] | 11.31 | – | –
NCCCCCCCCN [1,8 Diaminooctane] | 10.937 | – | –
CCCN(CCC)CCC [Tri-N-Propylamine] | 10.65 | – | –
CCCCN [Mono-N-Butylamine] | 10.61 | – | –
NCCCCCN [1,5 Diaminopentane] | 10.915 | – | –
CN [Monomethylamine] | 10.62 | – | –
CNC [Dimethylamine] | 10.61 | about 10.61 | about 6.50
CN(C)C [Trimethylamine] | 10.71 | – | –
